The values below are quoted from earlier work in US20240200062A1, “METHODS OF TREATING DUCHENNE MUSCULAR DYSTROPHY USING PEPTIDE-OLIGONUCLEOTIDE CONJUGATES” (PepGen Inc., priority 2021, published 2024).

In this data set the test system is dystrophin. The conditions noted are these: in vivo; cited from earlier work.

For the substance eteplirsen, the “levels of dystrophin restoration” value is recorded as “approximately 1 % of normal dystrophin levels”.
